Where no end group is shown, it is not given here.
What was measured:
untransfected T24 cells = assay: Inositol phosphate SPA assay in untransfected T24 cells; assay type: cell-based; settings: 1 mM carbachol
parent T24 cell line = assay: FLIPR intracellular calcium in parent T24 cell line; assay type: cell-based
[1] = system: acetylcholine receptors naturally expressed in HEK293 cells; assay: Inositol phosphate SPA assay in wild-type HEK293 cells; assay type: cell-based, human; settings: 1 mM carbachol, 5 mM LiCl where used (FIG. 9)
Source text: See Example 8 for details.

[2] = system: untransfected CHO/NFAT cells; assay: Inositol phosphate assay in untransfected CHO/NFAT cells; assay type: cell-based; settings: untransfected CHO/NFAT cells (FIGS. 7A-D), 10 nM NPFF
Source text: There was no response to NPFF in untransfected CHO/NFAT cells (FIGS. 7A-D).

Molecule | response to agonist (inositol phosphates) (untransfected T24 cells) | rise in intracellular calcium (parent T24 cell line) | inositol phosphate level [1] | response to agonist (inositol phosphates) [2]
C[N+](C)(C)CCOC(N)=O [carbachol] | no response | no rise in intracellular calcium | increase of inositol phosphate | 
NPFF: agonist used at 10 nM to activate the human neuropeptide FF receptor (FLFQPQRF; ends and bridges not checked; UniProt O15130 69-76, looked up) |  |  |  | no response

Source: patent publication US20040180394A1, “Assays for inositol phosphates” (priority 2001, published 2004)
